Key:
Liver microsome = test: Intrinsic clearance in human liver microsomes at 0.1 uM after 7 to 60 mins by LC-MS/MS analysis; assay type: ADME
[1] = Intrinsic clearance in mouse liver microsomes at 0.1 uM after 7 to 60 mins by LC-MS/MS analysis; assay type: ADME
[2] = Antitumor activity against human EBC1 cells xenografted in nude mouse assessed as tumor growth inhibition at 5 mg/kg, po qd administered for 21 days relative to control; assay type: functional; conditions: EBC-1, po, 504 h, read-out: TGI
[3] = target: Macrophage-stimulating protein receptor (Homo sapiens, UniProt Q04912); test: Inhibition of recombinant human Ron using poly (Glu,Tyr)4:1 as substrate after 60 mins by ELISA
Sequence of Macrophage-stimulating protein receptor (Q04912 25-304 limits assumed): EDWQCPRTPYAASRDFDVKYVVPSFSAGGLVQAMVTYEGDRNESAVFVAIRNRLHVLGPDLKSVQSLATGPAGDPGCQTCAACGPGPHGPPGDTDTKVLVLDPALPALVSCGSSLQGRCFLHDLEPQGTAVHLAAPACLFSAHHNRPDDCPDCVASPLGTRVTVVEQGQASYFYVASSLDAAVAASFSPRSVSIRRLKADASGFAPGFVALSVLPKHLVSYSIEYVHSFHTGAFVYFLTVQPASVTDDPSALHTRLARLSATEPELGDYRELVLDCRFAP
Sequence of Macrophage-stimulating protein receptor (Q04912 310-1400 limits assumed): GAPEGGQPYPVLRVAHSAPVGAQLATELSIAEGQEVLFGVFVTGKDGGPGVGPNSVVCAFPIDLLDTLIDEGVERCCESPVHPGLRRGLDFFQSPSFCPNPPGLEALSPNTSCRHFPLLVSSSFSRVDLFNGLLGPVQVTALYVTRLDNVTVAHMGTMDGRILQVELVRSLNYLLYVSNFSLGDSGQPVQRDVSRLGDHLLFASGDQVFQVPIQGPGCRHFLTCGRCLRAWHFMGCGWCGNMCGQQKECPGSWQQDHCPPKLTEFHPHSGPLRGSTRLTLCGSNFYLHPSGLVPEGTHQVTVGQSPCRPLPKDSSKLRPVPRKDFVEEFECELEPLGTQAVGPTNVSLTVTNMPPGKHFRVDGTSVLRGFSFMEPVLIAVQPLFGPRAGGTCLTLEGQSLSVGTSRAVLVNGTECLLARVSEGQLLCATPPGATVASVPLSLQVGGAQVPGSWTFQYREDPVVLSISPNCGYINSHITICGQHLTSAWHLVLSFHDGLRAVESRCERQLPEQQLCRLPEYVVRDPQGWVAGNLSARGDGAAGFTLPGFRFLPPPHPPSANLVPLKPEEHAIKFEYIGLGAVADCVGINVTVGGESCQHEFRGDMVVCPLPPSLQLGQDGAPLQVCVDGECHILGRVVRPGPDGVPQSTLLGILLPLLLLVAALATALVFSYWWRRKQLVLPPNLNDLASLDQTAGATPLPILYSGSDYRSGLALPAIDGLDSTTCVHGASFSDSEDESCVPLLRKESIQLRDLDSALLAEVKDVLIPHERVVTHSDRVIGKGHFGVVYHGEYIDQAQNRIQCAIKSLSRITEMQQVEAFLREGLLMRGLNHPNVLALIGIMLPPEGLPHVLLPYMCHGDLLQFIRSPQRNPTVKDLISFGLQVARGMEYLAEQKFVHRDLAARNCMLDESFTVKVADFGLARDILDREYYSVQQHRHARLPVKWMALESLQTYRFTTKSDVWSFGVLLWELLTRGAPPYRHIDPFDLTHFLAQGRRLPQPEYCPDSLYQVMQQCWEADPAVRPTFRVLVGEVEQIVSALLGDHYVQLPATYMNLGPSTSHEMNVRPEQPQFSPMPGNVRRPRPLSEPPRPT

[4] = target: T1, Tyrosine-protein kinase receptor UFO (Homo sapiens, UniProt P30530); test: Inhibition of recombinant human Axl using poly (Glu,Tyr)4:1 as substrate after 60 mins by ELISA
T1 sequence (P30530 whole entry): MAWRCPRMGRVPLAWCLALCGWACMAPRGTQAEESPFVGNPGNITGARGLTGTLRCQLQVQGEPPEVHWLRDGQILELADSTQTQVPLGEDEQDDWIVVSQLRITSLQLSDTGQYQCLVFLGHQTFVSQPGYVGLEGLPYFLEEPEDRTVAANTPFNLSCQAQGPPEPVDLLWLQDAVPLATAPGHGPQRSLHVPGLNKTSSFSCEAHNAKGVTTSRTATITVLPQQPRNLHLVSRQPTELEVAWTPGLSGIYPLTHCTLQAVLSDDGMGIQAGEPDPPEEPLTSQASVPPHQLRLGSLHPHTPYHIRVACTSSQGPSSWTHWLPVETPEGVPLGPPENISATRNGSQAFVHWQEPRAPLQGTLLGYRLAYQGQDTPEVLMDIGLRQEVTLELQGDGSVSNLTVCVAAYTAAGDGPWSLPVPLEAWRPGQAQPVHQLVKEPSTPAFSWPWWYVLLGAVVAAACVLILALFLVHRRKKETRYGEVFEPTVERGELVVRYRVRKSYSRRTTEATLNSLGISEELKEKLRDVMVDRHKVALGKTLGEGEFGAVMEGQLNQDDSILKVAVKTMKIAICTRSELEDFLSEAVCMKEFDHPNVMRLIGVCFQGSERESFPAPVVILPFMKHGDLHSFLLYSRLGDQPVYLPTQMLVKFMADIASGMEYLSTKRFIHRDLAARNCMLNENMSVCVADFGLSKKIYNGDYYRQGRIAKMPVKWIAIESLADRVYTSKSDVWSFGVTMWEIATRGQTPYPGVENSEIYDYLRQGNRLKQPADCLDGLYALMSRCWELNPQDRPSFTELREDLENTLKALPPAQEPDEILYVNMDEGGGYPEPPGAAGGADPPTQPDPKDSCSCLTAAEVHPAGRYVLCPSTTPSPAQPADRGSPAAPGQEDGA

[5] = target: Fibroblast growth factor receptor 1 (Homo sapiens, UniProt P11362); test: Inhibition of recombinant human FGFR1 using poly (Glu,Tyr)4:1 as substrate after 60 mins by ELISA
Sequence of Fibroblast growth factor receptor 1 (P11362 whole entry): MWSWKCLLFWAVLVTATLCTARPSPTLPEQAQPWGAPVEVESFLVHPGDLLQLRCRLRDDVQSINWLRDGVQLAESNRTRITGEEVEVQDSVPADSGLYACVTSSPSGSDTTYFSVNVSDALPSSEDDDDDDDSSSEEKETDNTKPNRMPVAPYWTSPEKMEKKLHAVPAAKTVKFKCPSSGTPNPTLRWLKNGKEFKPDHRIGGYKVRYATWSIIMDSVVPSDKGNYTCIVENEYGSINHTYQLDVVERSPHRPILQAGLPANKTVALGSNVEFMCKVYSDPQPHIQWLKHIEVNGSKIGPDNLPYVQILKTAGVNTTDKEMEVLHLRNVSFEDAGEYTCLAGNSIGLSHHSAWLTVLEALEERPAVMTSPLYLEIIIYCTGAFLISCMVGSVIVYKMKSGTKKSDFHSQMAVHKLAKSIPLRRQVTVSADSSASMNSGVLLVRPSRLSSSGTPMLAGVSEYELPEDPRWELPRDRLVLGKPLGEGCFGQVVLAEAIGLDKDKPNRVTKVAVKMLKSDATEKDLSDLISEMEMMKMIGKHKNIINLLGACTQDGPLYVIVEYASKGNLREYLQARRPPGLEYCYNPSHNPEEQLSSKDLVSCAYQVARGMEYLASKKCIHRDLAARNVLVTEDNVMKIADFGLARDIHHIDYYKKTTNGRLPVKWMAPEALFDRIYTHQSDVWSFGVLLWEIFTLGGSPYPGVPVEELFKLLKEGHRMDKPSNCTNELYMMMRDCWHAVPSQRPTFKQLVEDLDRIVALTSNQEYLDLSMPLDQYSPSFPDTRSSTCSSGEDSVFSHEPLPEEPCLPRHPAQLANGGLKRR

[6] = target: T2, Tyrosine-protein kinase Mer (Homo sapiens, UniProt Q12866); test: Inhibition of recombinant human Mer using poly (Glu,Tyr)4:1 as substrate after 60 mins by ELISA
T2 sequence (Q12866 whole entry): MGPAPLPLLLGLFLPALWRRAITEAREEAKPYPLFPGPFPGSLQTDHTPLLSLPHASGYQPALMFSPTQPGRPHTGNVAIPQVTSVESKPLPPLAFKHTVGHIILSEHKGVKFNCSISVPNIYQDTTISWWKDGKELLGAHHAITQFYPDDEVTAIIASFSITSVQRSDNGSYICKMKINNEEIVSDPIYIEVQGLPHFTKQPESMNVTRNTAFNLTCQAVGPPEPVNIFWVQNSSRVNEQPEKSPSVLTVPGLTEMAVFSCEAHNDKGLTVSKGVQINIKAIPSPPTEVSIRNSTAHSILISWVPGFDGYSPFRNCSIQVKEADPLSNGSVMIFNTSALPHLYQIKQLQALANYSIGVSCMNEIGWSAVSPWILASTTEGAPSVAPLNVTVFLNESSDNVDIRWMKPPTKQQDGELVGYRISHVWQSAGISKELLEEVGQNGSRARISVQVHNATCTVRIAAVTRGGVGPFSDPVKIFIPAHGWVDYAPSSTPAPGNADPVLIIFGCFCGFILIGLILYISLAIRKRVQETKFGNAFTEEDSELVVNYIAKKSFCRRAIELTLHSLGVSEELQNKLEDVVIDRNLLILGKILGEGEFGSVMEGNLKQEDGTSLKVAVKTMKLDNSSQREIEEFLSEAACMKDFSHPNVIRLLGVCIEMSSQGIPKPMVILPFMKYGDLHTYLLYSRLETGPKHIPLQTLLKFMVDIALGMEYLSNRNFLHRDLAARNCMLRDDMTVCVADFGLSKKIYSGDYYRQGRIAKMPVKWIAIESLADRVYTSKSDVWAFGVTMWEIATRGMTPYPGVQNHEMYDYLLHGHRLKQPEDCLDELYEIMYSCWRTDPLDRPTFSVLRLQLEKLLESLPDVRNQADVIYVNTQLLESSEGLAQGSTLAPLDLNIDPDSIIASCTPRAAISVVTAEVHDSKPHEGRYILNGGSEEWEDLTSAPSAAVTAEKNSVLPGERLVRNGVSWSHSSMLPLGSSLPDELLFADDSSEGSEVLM

- CLH (Liver microsome): 9 mL/min/g
- CLH [1]: 16 mL/min/g
- IC50 [3]: > 1 µM
- IC50 [4]: > 1 µM
- IC50 [5]: > 1 µM
- IC50 [6]: > 1 µM
SMILES: Cn1cc(-c2cnc(Nc3cccc(Cn4nc(-c5cnn(C)c5)ccc4=O)c3)nc2)cn1
- inhibition in vivo at 5 mg/kg [2]: 42.5%
